Results: ChEMBL document CHEMBL1154885, “Heat shock protein 90: inhibitors in clinical trials” (J Med Chem, 2010)
Values after ≈ are worked out from the molar mass of the structure shown.

Key:
[1] = Half life in human at 220 mg/m2 administered as DMSO/egg phospholipid formulation; assay type: ADME, organism-based; settings: in vivo
NCI-H1650 = test: Antitumor activity against human NCI-H1650 cells xenografted in mouse at 100 mg/kg administered daily for 5 days a week; assay type: functional; settings: NCI-H1650, 120 h, read-out: TGI
[2] = Clearance in plasma of mouse bearing human A2780 cells at 80 mg/kg, ip administered as DMSO/egg phospholipid formulation; assay type: ADME, organism-based; parameters: dose 80 mg/kg, route intraperitoneal
[3] = Cmax in liver of mouse bearing human A2780 cells at 80 mg/kg, ip administered as DMSO/egg phospholipid formulation; assay type: ADME, organism-based; parameters: dose 80 mg/kg, route intraperitoneal
[4] = Half life in plasma of mouse bearing human A2780 cells at 80 mg/kg, ip administered as DMSO/egg phospholipid formulation; assay type: ADME, organism-based; parameters: dose 80 mg/kg, route intraperitoneal
[5] = Solubility in water; assay type: physicochemical
[6] = AUC in liver of mouse bearing human A2780 cells at 80 mg/kg, ip administered as DMSO/egg phospholipid formulation; assay type: ADME, organism-based; parameters: dose 80 mg/kg, route intraperitoneal
[7] = Chemical stability assessed as half life; assay type: physicochemical
[8] = Cmax in plasma of mouse bearing human A2780 cells at 80 mg/kg, ip administered as DMSO/egg phospholipid formulation; assay type: ADME, organism-based; parameters: dose 80 mg/kg, route intraperitoneal
Homo sapiens [9] = test: Toxicity in human assessed as maximum tolerated dose administered on 3 days schedule administered as DMSO/egg phospholipid formulation; assay type: organism-based; settings: in vivo, 72 h
[10] = Clearance in human at 220 mg/m2 administered as DMSO/egg phospholipid formulation; assay type: ADME, organism-based; settings: in vivo
[11] = AUC in plasma of mouse bearing human A2780 cells at 80 mg/kg, ip administered as DMSO/egg phospholipid formulation; assay type: ADME, organism-based; parameters: dose 80 mg/kg, route intraperitoneal
Plasma = test: Apparent volume of distribution in plasma of mouse bearing human A2780 cells at 80 mg/kg, ip administered as DMSO/egg phospholipid formulation; assay type: ADME, organism-based; parameters: dose 80 mg/kg, route intraperitoneal; settings: in vivo
[12] = AUC in tumor of mouse bearing human A2780 cells at 80 mg/kg, ip administered as DMSO/egg phospholipid formulation; assay type: ADME, organism-based, Neoplasm; parameters: dose 80 mg/kg, route intraperitoneal
Homo sapiens [13] = test: Toxicity in human assessed as maximum tolerated dose administered on daily schedule administered as DMSO/egg phospholipid formulation; assay type: organism-based; settings: in vivo
[14] = Cmax in human at 220 mg/m2 administered as DMSO/egg phospholipid formulation; assay type: ADME, organism-based; settings: in vivo
A2780 = test: Antitumor activity against human A2780 cells xenografted in mouse at 80 mg/kg, ip administered as DMSO/egg phospholipid formulation; assay type: functional; settings: route intraperitoneal, read-out: TGI
[15] = AUC in human at 220 mg/m2 administered as DMSO/egg phospholipid formulation; assay type: ADME, organism-based; settings: plasma
[16] = Apparent volume of distribution in tumor of mouse bearing human A2780 cells at 80 mg/kg, ip administered as DMSO/egg phospholipid formulation; assay type: ADME, organism-based, Neoplasm; parameters: dose 80 mg/kg, route intraperitoneal; settings: in vivo
[17] = Clearance in tumor of mouse bearing human A2780 cells at 80 mg/kg, ip administered as DMSO/egg phospholipid formulation; assay type: ADME, organism-based, Neoplasm; parameters: dose 80 mg/kg, route intraperitoneal; settings: in vivo
Liver [18] = test: Apparent volume of distribution in liver of mouse bearing human A2780 cells at 80 mg/kg, ip administered as DMSO/egg phospholipid formulation; assay type: ADME, organism-based; parameters: dose 80 mg/kg, route intraperitoneal; settings: in vivo
[19] = Half life in tumor of mouse bearing human A2780 cells at 80 mg/kg, ip administered as DMSO/egg phospholipid formulation; assay type: ADME, organism-based, Neoplasm; parameters: dose 80 mg/kg, route intraperitoneal
[20] = Half life in liver of mouse bearing human A2780 cells at 80 mg/kg, ip administered as DMSO/egg phospholipid formulation; assay type: ADME, organism-based; parameters: dose 80 mg/kg, route intraperitoneal
[21] = Cmax in tumor of mouse bearing human A2780 cells at 80 mg/kg, ip administered as DMSO/egg phospholipid formulation; assay type: ADME, organism-based, Neoplasm; parameters: dose 80 mg/kg, route intraperitoneal; settings: read-out: Cmax_tumor
Liver [22] = test: Clearance in liver of mouse bearing human A2780 cells at 80 mg/kg, ip administered as DMSO/egg phospholipid formulation; assay type: ADME, organism-based; parameters: dose 80 mg/kg, route intraperitoneal; settings: in vivo
[23] = Half life in plasma of mouse bearing human MM1S cells at 50 mg/kg; assay type: ADME, organism-based; parameters: dose 50 mg/kg
[24] = Half life in tumor of mouse bearing human MM1S cells at 50 mg/kg; assay type: ADME, organism-based, Neoplasm; parameters: dose 50 mg/kg
[25] = Tmax in human at 220 mg/m2 administered as DMSO/egg phospholipid formulation; assay type: ADME, organism-based; settings: in vivo
[26] = target: T1, Heat shock protein HSP 90-beta (Homo sapiens, UniProt P08238)
Description: Binding affinity to HSP90 under reducing conditions in presence of TECP

[27] = Volume of distribution at steady state in human at 220 mg/m2 administered as DMSO/egg phospholipid formulation; assay type: ADME, organism-based; settings: in vivo, read-out: Vdss
[28] = target: T1, Heat shock protein HSP 90-beta; remark: listed apart in the source
Description: Binding affinity to HSP90 under non-reducing conditions in absence of TECP

[29] = target: T1, Heat shock protein HSP 90-beta; remark: listed apart in the source
Description: Inhibition of HSP90-mediated client protein HER2 degradation

[30] = target: T1, Heat shock protein HSP 90-beta; remark: listed apart in the source
Description: Inhibition of HSP90-mediated client protein HER2 degradation in human MCF7 cells

Canis familiaris = test: Toxicity in iv dosed dog assessed as maximum tolerated dose; assay type: organism-based, Canis lupus familiaris; settings: in vivo
Rattus norvegicus = test: Toxicity in iv dosed rat assessed as maximum tolerated dose; assay type: organism-based; settings: in vivo
BT-474 = test: animal or person; settings: Mus musculus, BT-474, po, read-out: TGI
Description: Antitumor activity against human BT474 cells xenografted in BALB/c mouse at 120 mg/kg, po administered in QDx5 schedule

SK-OV-3 = test: animal or person; settings: Mus musculus, SK-OV-3, po, read-out: TGI
Description: Antitumor activity against human SKOV3 cells xenografted in BALB/c mouse at 124 mg/kg, po administered in QDx5 schedule

[31] = Tmax in mouse at 100 mg/kg, po; assay type: ADME, organism-based; parameters: dose 100 mg/kg, route oral; settings: in vivo
[32] = Cmax in mouse at 100 mg/kg, po; assay type: ADME, organism-based; parameters: dose 100 mg/kg, route oral; settings: in vivo
[33] = AUC in mouse at 100 mg/kg, po; assay type: ADME, organism-based; parameters: dose 100 mg/kg, route oral; settings: plasma
animal or person [34] = settings: Homo sapiens, U-87 MG, po, read-out: TGI
Description: Antitumor activity against human U87 cells xenografted in BALB/c mouse at 75 mg/kg, po administered in BIDx5 schedule

animal or person [35] = settings: Homo sapiens, CWR22, po, read-out: TGI
Description: Antitumor activity against human CWR22 cells xenografted in BALB/c mouse at 120 mg/kg, po administered in QDx5 schedule

PANC-1 = test: animal or person; settings: Mus musculus, PANC-1, po, read-out: TGI
Description: Antitumor activity against human PANC1 cells xenografted in BALB/c mouse at 124 mg/kg, po administered in QDx5 schedule

Mus musculus = test: Toxicity in BALB/c mouse assessed as body weight loss at 125 mg/kg, po administered in QDx5 schedule; assay type: organism-based; parameters: dose 125 mg/kg, route oral; settings: in vivo
[36] = Half life in mouse at 100 mg/kg, po; assay type: ADME, organism-based; parameters: dose 100 mg/kg, route oral; settings: in vivo
NCI-N87 = test: animal or person; settings: Mus musculus, NCI-N87, po, read-out: TGI
Description: Antitumor activity against human NCI-N87 cells xenografted in BALB/c mouse at 125 mg/kg, po administered in QDx5 schedule

T1 sequence (P08238 whole entry): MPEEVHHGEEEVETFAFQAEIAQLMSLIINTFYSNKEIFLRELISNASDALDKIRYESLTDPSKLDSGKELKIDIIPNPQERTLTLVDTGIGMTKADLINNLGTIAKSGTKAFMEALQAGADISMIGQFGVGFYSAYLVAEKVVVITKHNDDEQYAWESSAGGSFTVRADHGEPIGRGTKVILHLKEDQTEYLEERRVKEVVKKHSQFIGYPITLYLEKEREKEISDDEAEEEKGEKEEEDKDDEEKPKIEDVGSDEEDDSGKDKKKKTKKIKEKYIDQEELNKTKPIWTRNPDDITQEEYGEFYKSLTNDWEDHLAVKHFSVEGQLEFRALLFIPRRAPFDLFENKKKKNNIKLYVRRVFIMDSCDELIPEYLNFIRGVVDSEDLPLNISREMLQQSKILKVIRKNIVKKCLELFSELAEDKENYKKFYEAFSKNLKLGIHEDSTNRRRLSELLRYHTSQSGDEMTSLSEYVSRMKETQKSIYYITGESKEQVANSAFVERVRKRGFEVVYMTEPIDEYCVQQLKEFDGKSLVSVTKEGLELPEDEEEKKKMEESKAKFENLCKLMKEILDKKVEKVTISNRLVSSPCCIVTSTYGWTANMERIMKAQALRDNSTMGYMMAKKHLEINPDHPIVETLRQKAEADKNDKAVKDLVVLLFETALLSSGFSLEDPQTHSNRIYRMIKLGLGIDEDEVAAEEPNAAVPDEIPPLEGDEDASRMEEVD

Row | SMILES | half-life [1] [min] | CL/F [2] [mL/min] | Cmax [3] [µM] | half-life [4] [min] | AUC [6] [µM·h] | half-life [7] [min] | Cmax [8] [µM] | AUC [11] [µM·h] | Vz (Plasma) [L] | AUC [12] [µM·h] | Cmax [14] [µM] | AUC [15] [µM·h] | Vz [16] [L] | CL [17] [L/h] | Vz (Liver [18]) [L] | half-life [19] [min] | half-life [20] [min] | Cmax [21] [µM] | CL (Liver [22]) [L/h] | further results
1 | C=CCNC1=C2C[C@@H](C)C[C@H](OC)[C@H](O)[C@@H](C)/C=C(\C)[C@H](OC(N)=O)[C@@H](OC)/C=C\C=C(/C)C(=O)NC(=CC1=O)C2=O [TANESPIMYCIN] | 228 | 0.667 | 126 | 52.8 | 263 | 588 | 35 | 68 | 0.05 | 80 | 7.5 | 22 | 0.34 | 0.03 | 0.01 | 450 | 51.6 | 15 | 0.01 | inhibition in vivo at 100 mg/kg (NCI-H1650): 30%; solubility [5]: 20 µg/mL (≈ 34.1 µM); MTD (Homo sapiens [9]): 220 mg/m2; clearance [10]: 700 mL/min; MTD (Homo sapiens [13]): 56 mg/m2; inhibition in vivo at 80 mg/kg (A2780): 70%
2 | CC1(C)CC(=O)c2c(C(F)(F)F)nn(-c3ccc(C(N)=O)c(N[C@H]4CC[C@H](O)CC4)c3)c2C1 [SNX-2112] | – | – | – | – | – | – | – | – | – | – | – | – | – | – | – | – | – | – | – | half-life [23]: 180 min; half-life [24]: 600 min
3 | CO[C@H]1/C=C\C=C(/C)C(=O)NC2=CC(=O)C(N)=C(C[C@@H](C)C[C@H](OC)[C@H](O)[C@@H](C)/C=C(\C)[C@@H]1OC(N)=O)C2=O | 414 | 1.83 | 18 | 72 | 59 | – | 4.8 | 15 | 0.18 | 43 | 3 | 21 | 0.49 | 0.03 | 0.06 | 822 | 108 | 3.5 | 0.02 | Tmax [25]: 1.7 h; Ki [26]: 3 nM; Vd [27]: 230 L; Ki [28]: 21 nM; IC50 [29]: 7 nM; IC50 [30]: 12 nM
4 | CO[C@H]1/C=C\C=C(/C)C(=O)NC2=CC(=O)C(NCCN(C)C)=C(C[C@@H](C)C[C@H](OC)[C@H](O)[C@@H](C)/C=C(\C)[C@@H]1OC(N)=O)C2=O [ALVESPIMYCIN] | – | – | – | – | – | 26 | – | – | – | – | – | – | – | – | – | – | – | – | – | MTD (Canis familiaris): 8 mg/m2; MTD (Rattus norvegicus): 12 mg/m2
5 | COc1c(C)cnc(Cn2cnc3c(Cl)nc(N)nc32)c1C [BIIB021] | – | – | – | – | – | – | – | – | – | – | – | – | – | – | – | – | – | – | – | inhibition in vivo at 120 mg/kg (BT-474): 94%; inhibition in vivo at 124 mg/kg (SK-OV-3): 67%; Tmax [31]: 6 min; Cmax [32]: 31 µM; AUC [33]: 15 µM·h; inhibition in vivo at 75 mg/kg (animal or person [34]): 70%; inhibition in vivo at 120 mg/kg (animal or person [35]): 85%; inhibition in vivo at 124 mg/kg (PANC-1): 51%; Activity (Mus musculus): 3%; half-life [36]: 48 min; inhibition in vivo at 125 mg/kg (NCI-N87): 87%
